Source: patent US7498323B2, “Spiro-piperidine compounds and medicinal use thereof” (Ono Pharmaceuticals Co., Ltd., priority 2003, dated 2009)

Target: Human CCR2 (Homo sapiens, UniProt P41597)
Conditions: at 10 μM; human CCR2-expressing cells (THP-1); human MCP-1 30 nM; Ca2+ transient increase
Description: (5) Inhibition test on the binding of MCP-1 to CCR2 (activity of MCP-1 to induce transient increase of Ca ion).
Then, 4-fold to 8-fold 1×Hanks/HEPES (20 mM; pH 7.4)/Probenecid (2.5 mM) was added thereto, followed by further incubation at 37° C. for 30 minutes under shading. After the cells were washed with 1×Hanks/HEPES (20 mM; pH 7.4)/Probenecid (2.5 mM) solution, the cells were suspended again by the same solution to give a density of 2.0×10^6 cells/ml and added to a 96-well plate at 100 μl/well. Each of the test compounds was added, and 3 minutes thereafter, a recombinant human MCP-1 (PeproTach) diluted with 1×Hanks/HEPES (20 mM; pH 7.4)/Probenecid (2.5 mM) was added thereto to a final concentration of 30 nM. Transient increase in the intracellular Ca^2+ concentration induced by the human MCP-1 was measured using a Ca^2+ detector for 96 well use (Hamamatsu Photonics), and inhibition ratio (%) of the test compound was calculated by the following calculation formula. Inhibition ratio=(Ec−Ea)/Ec×100 • Ec: measured value of Ca^2+ transient increase by MCP-1 • Ea: measured value of Ca^2+ transient increase by MCP-1 when a test compound was added.

Sequence of Human CCR2 (P41597 1-360 isoform P41597-2): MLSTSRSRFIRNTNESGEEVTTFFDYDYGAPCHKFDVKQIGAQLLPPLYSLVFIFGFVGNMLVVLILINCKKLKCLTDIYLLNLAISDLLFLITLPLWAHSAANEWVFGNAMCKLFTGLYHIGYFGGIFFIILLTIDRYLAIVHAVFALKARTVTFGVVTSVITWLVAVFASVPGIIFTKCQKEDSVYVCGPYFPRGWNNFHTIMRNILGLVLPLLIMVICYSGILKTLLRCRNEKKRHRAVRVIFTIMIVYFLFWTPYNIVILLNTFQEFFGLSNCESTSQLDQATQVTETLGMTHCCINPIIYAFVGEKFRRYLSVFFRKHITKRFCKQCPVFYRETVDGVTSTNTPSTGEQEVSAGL

In the case of `CCCN1C(=O)N(CCCNC(=O)OCc2ccccc2)CCC12CCN(CCc1ccccc1)CC2` [Example 37, phenylmethyl{3-[2-oxo-9-(2-phenylethyl)-1-propyl-1,3,9-triazaspiro[5.5]undeca-3-yl]propyl}carbamate], the inhibition ratio is reported as at least 50%.
